Results published in patent US20190352644A1, “INHIBITION OF MITOCHONDRIAL HYPOXIC STRESS INDUCED RNA EDITING BY APOBEC3G CYTIDINE DEAMINASE” (Health Research, Inc., priority 2015, published 2019).

Experiments:
APOBEC3A = biological target: T1, APOBEC3A (Homo sapiens, UniProt P31941); experiment: In vitro SDHB RNA editing assay with purified APOBEC3A; type: biochemical; settings: chelation of zinc with 10 μM 1,10-phenanthroline, 2 hours at 37° C
T1 construct: made in house; host or cells: Rosetta 2(DE3)pLysS E. coli; pET21 construct from Dr. Jinwoo Ahn
Description: Rosetta™ 2(DE3)pLysS E. coli (EMD Millipore®) transformed with a bacterial expression construct for C-His6-tagged APOBEC3A and grown in Luria broth at 37° C. were induced for expression of the recombinant protein with 0.3 mM isopropyl β-D-1-thiogalactopyranoside (IPTG) and cultured overnight at 18° C. Harvested cells were lysed with a French pressure cell (American Instrument Corporation®, Hartland, Wis.) and Ni-NTA His.Bind Resin™ (EMD Millipore®) was used as per manufacturer's instructions to purify APOBEC3A protein from the lysates by affinity chromatography. Isolated protein was concentrated using an Amicon™ Ultra-4 Centrifugal Filter Unit with Ultracel-3 membrane (EMD Millipore®; nominal molecular weight limit of 3 kDa). The concentrated protein was stored in 25 mM Tris (pH 8.0) with 50 mM NaCl, 1 mM DTT, 5% v/v glycerol, and 0.02% w/v sodium azide.
Whole cell lysates of 293T transfectants were prepared using lysis buffer containing 0.2% Surfact-Amps™ NP-40 (Thermo Fisher®), 30 mM 4-(2-hydroxyethyl)-1-piperazine-ethane-sulfonic acid (HEPES; pH 7.5), 100 mM KCl, 25 mM NaCl, 1.5 mM MgCl2, 1 mM DTT, and 0.5× Halt™ protease and phosphatase inhibitor cocktail, and stored with 10% v/v glycerol at −80° C. […]

NK-92 cells = experiment: TM7SF3 C>U RNA editing in NK-92 cells treated with mitochondrial inhibitors; type: cell-based, human; settings: NK-92, normoxia, intermediate density, 24 well plates, inhibitor 1 μM, 2 days
Description: We treated NK-92 cells with normoxia with or without the mitochondrial inhibitors (AtA5 or MXT) or hypoxia alone at intermediate density in 24 well plates for 2 days. […] The reason behind the difference in hypoxia induced RNA editing level of HuT78 and NK-92 cells may be due to metabolic differences between the two cell lines.
(§1) For testing the mitochondrial inhibitors, HuT78 and NK-92 cells were cultured at […] cells per 0.5 ml in 24 well plates in normoxia with or without AtA5 and MXT or hypoxia alone for 2 days at 37° C.
(§2) Human IFN-γ was obtained from PeproTech and used at a concentration of 50 ng/ml. AtA5 (Cayman chemical #11898) and MXT (Sigma Aldrich #T5580) was used at a concentration of 1 μM.
(§3) Total RNA was isolated and reverse transcribed to generate cDNAs. […] To quantify RNA editing level, the major and minor chromatogram peak heights at putative edited nucleotides were quantified with Sequencher 5.0/5.1 software (Gene Codes, MI). […] For quantitative PCR to assess APOBEC3G and APOBEC3F gene expression, reactions using LightCycler™ 480 Probes Master and SYBR™ Green I dye were performed on a LightCycler™ 480 System (Roche). Quantification cycle (Cq) values were calculated by the instrument software using the maximum second derivative method, and the mean Cq value of duplicate PCR reactions was used for analysis.

HuT78 cells = experiment: TM7SF3 C>U RNA editing in HuT78 cells treated with mitochondrial inhibitors or thapsigargin; type: cell-based, human; settings: HuT78, normoxia; for RNA editing level (TM7SF3): 0.5×10^6 cells per 500 μl, inhibitor 1 μM
Description: We tested the effect of inhibitors of mitochondrial complex II by atpenin A5 (AtA5) and of the complex III by myxothiazol (MXT) on RNA editing in HuT78 cells cultured in normoxia. Additionally, to test whether endoplasmic reticulum (ER) stress can also induce RNA editing, we treated the cells with Thapsigargin (Tg). Tg is considered to induce ER stress by raising intracellular calcium levels and lowers the ER calcium levels by specifically inhibiting the endoplasmic reticulum Ca^++ ATPase, resulting in the accumulation of unfolded proteins and an increased accumulation eIF-2α phosphorylated at Ser 51 (FIGS. 33c and 35b). To test the effect of hypoxic stress alone on HuT78 cells, we reduced the cell density to avoid cellular crowding and cultured the cells at an intermediate density of 0.5×10^6 cells per 500 μl per well in 24 well plates with or without the chemical inhibitors in normoxia, and hypoxia alone for one or two days. Under these conditions, we determined RNA editing level and the stabilization of HIF-1α in these cells. […] RNA editing levels increased to approximately 30% in cells treated with MXT, AtA5 or hypoxia alone on day 2. […] Furthermore, HIF-1α was stabilized only when the cells were subjected to hypoxia but not in normoxia in the presence or absence of the mitochondrial inhibitors (FIG. 32c).
as §1, §2
as §3, with “cDNAs. DNA primers used for PCR were obtained from Integrated DNA Technologies and are noted in Table 6. Primers used for PCR of cDNA templates were designed such that the amplicons spanned multiple exons.” for “cDNAs.”

T1 sequence (P31941 whole entry): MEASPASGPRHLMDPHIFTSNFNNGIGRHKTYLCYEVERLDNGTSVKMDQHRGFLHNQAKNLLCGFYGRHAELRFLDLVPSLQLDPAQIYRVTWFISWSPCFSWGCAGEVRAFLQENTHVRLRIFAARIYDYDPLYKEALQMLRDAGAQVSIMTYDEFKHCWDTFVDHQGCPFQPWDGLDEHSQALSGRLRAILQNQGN

| SMILES | c.136C>U editing of SDHB RNA by His6-tagged APOBEC3A (APOBEC3A) | RNA editing level (TM7SF3) (NK-92 cells) [%] | RNA editing level (TM7SF3) (HuT78 cells; day 1) | RNA editing level (TM7SF3) (HuT78 cells; day 2) | induction of RNA editing (TM7SF3) (HuT78 cells; one or two days) |
| --- | --- | --- | --- | --- | --- |
| c1cnc2c(c1)ccc1cccnc12 [1,10-phenanthroline] | abolished the editing | – | – | – | – |
| CO/C(=C/C(N)=O)[C@H](C)[C@H](/C=C/c1csc(-c2csc([C@@H](C)/C=C/C=C/C(C)C)n2)n1)OC [MXT, myxothiazol] | – | ~25 | approximately 10% | approximately 30% | – |
| COc1[nH]c(=O)c(C(=O)[C@@H](C)C[C@H](C)[C@@H](Cl)CCl)c(O)c1OC [AtA5, atpenin A5] | – | ~25 | – | approximately 30% | – |
| C/C=C(/C)C(=O)O[C@H]1C(C)=C2[C@H]([C@@H]1OC(=O)CCCCCCC)[C@@](C)(OC(C)=O)C[C@H](OC(=O)CCC)[C@@]1(O)[C@H]2OC(=O)[C@@]1(C)O [Tg, Thapsigargin] | – | – | – | – | did not induce RNA editing |
